Experimental data: PMC8903829 (eLife, 2022)
pEC50: −log10 of the molar value. Several values for one entry are separate records, joined by “and”; a condition that tells them apart may be missing. Identical values can stand only once. Like-named read-outs stand apart in the source and are kept apart here.

What was measured:
wild-type mice (CF-1) = assay: DC-Maximal electroshock seizure assay (DC-MES); type: in vivo, mouse; conditions: for WT mouse DCMES Chronic, Fraction of animals seizing: day 7, 2 h after 13th dose; for WT mouse DCMES acute, Fraction of animals seizing: 2 h
Summary of the method: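 Compounds given 2 hr before corneal DC electroshock; phenytoin i.p. in saline. CF1 mice (9–12 weeks): 50 mA, 60 Hz, 0.2 s; SD rats (5–6 weeks): 150 mA, 60 Hz, 0.3 s; 0.5 ms pulse width, eyes anaesthetised with proparacaine. Absence of tonic-clonic hindlimb extension scored protected (0), blinded scoring.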

Sprague Dawley rats = assay: Observation of potential adverse behavior (behavioral signs) in the rat DC-MES studies; type: in vivo; conditions: rat
Procedure: Animals were observed by the scientist(s) responsible for dosing for the first 30 min after dosing for and again at the time of assay (2 hr post dose) for signs of abnormal behavior.

[1] = Bioanalytical assessment of plasma and brain concentrations after 6 Hz assay; type: in vivo, mouse; conditions: for Mean [Plasma] / Mean [Brain] / concentration at 2 hr: Scn8a mice; for concentration at 2 hr: mouse, po
Summary of the method: (§1)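 Blood (cardiac puncture, EDTA) and whole brains taken at end of the in vivo assay; brain homogenized in 1:1 acetonitrile/water. Plasma and homogenate extracted by acetonitrile protein precipitation with internal standard, quantified by UHPLC-ESI-MS/MS against a 1/X-weighted linear calibration.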

[2] = Bioanalytical assessment of plasma and brain concentrations after mouse DC-MES assay; type: in vivo; conditions: WT mice; for concentration at 2 h: mouse, po
Summary of the method: as §1

[3] = Bioanalytical assessment of plasma and brain concentrations after rat DC-MES assay; type: in vivo; conditions: sheet Figure 5G, 5H, 5I (rats); for concentration at 2 h: rat, po
[4] = 6 mg/kg PO every 12 hr, day 7, 2 hr after 13th dose, 6 mg/kg
[5] = 100 mg/kg PO single dose, after assay 2 hr post dose, 100 mg/kg
[6] = 3 mg/kg PO every 12 hr, day 7, 2 h after 13th dose, 3 mg/kg
[7] = 5 mg/kg PO every 12 hr, day 7, 2 h after 13th dose, 5 mg/kg
[8] = 10 mg/kg PO single dose, 2 h, 10 mg/kg

## Cc1cc(S(=O)(=O)Nc2cscn2)c(F)cc1N(C)[C@H]1CCN(Cc2ccccc2)C1 [NBI-921352]
wild-type mice (CF-1); 3 mg/kg PO every 12 hr
  WT mouse DCMES Chronic, Fraction of animals seizing: 0.4 and 0.25
wild-type mice (CF-1); 3 mg/kg PO single dose
  WT mouse DCMES acute, Fraction of animals seizing: 0.8 and 0.75 and 0.7143
wild-type mice (CF-1); 5 mg/kg PO every 12 hr
  WT mouse DCMES Chronic, Fraction of animals seizing: 0.25 and 0.2857
wild-type mice (CF-1); 5 mg/kg PO single dose
  WT mouse DCMES acute, Fraction of animals seizing: 0.625 and 0.7143
wild-type mice (CF-1); 10 mg/kg PO every 12 hr
  WT mouse DCMES Chronic, Fraction of animals seizing: 0.2
wild-type mice (CF-1); 10 mg/kg PO single dose
  WT mouse DCMES acute, Fraction of animals seizing: 0.6 and 0.4286 and 0.6667
wild-type mice (CF-1); 30 mg/kg PO single dose
  WT mouse DCMES acute, Fraction of animals seizing: 0.3333 and 0.4 and 0.4286
wild-type mice (CF-1); 100 mg/kg PO single dose
  WT mouse DCMES acute, Fraction of animals seizing: 0.2857
wild-type mice (CF-1); 200 mg/kg PO single dose
  WT mouse DCMES acute, Fraction of animals seizing: 0.1667
wild-type mice (CF-1); WT mouse DC-MES, 2 hr post dose (oral; phenytoin i.p.), read-out: brain EC50
  pEC50: 6.70
wild-type mice (CF-1); WT mouse DC-MES, oral, 2 hr, read-out: ED50, prevention of GTC with hindlimb extension
  ED50: 23 mg/kg
wild-type mice (CF-1); WT mouse DC-MES, read-out: plasma EC50
  pEC50: 6.28
Sprague Dawley rats
  minimal plasma concentration provoking behavioral signs (BSC): 71 µM
[1]; 3 mg/kg PO single dose, after assay 2 hr post dose, 3 mg/kg
  Mean [Plasma]: 0.003985 µM
[1]; [4]
  Mean [Brain]: 0.02201 µM and 0.01923 µM
  Mean [Plasma]: 0.01663 µM and 0.02029 µM
[1]; 10 mg/kg PO single dose, after assay 2 hr post dose, 10 mg/kg
  Mean [Plasma]: 0.01541 µM
[1]; 30 mg/kg PO single dose, after assay 2 hr post dose, 30 mg/kg
  Mean [Brain]: 0.133 µM and 0.1224 µM and 0.09287 µM and 0.1253 µM
[1]; [5]
  Mean [Brain]: 0.3467 µM
  Mean [Plasma]: 0.5385 µM
[1]; Scn8a^N1768D/+ (heterozygous gain-of-function knock-in line), brain, 30 mg/kg, 30 mg/kg PO single dose, after assay 2 hr post dose, read-out: Mean [Brain]
  concentration at 2 hr: 96.6 nM
[1]; Scn8a^N1768D/+ (heterozygous gain-of-function knock-in line), brain, 100 mg/kg, 100 mg/kg PO single dose, after assay 2 hr post dose, read-out: Mean [Brain]
  concentration at 2 hr: 357 nM
[1]; Scn8a^N1768D/+ (heterozygous gain-of-function knock-in line), plasma, 3 mg/kg, 3 mg/kg PO single dose, after assay 2 hr post dose, read-out: Mean [Plasma]
  concentration at 2 hr: 3.45 nM
[1]; Scn8a^N1768D/+ (heterozygous gain-of-function knock-in line), plasma, 10 mg/kg, 10 mg/kg PO single dose, after assay 2 hr post dose, read-out: Mean [Plasma]
  concentration at 2 hr: 9.56 nM
[1]; Scn8a^N1768D/+ (heterozygous gain-of-function knock-in line), plasma, 100 mg/kg, 100 mg/kg PO single dose, after assay 2 hr post dose, read-out: Mean [Plasma]
  concentration at 2 hr: 717 nM
[1]; Scn8a^N1768D/+, brain, 2 mg/kg, 2 mg/kg PO every 12 hr, day 7, 2 hr after 13th dose, read-out: Mean [Brain]
  concentration at 2 hr: 10.5 nM
[1]; Scn8a^N1768D/+, brain, 2 mg/kg, 2 mg/kg PO single dose, after assay 2 hr post dose, read-out: Mean [Brain]
  concentration at 2 hr: 8.02 nM
[1]; Scn8a^N1768D/+, brain, 6 mg/kg, 6 mg/kg PO every 12 hr, day 7, 2 hr after 13th dose, read-out: Mean [Brain]
  concentration at 2 hr: 28.8 nM
[1]; Scn8a^N1768D/+, brain, 200 mg/kg, 200 mg/kg PO single dose, after assay 2 hr post dose, read-out: Mean [Brain]
  concentration at 2 hr: 3850 nM
[1]; Scn8a^N1768D/+, brain, 300 mg/kg, 300 mg/kg PO single dose, after assay 2 hr post dose, read-out: Mean [Brain]
  concentration at 2 hr: 6940 nM
[1]; Scn8a^N1768D/+, plasma, 2 mg/kg, 2 mg/kg PO every 12 hr, day 7, 2 hr after 13th dose, read-out: Mean [Plasma]
  concentration at 2 hr: 2.95 nM
[1]; Scn8a^N1768D/+, plasma, 2 mg/kg, 2 mg/kg PO single dose, after assay 2 hr post dose, read-out: Mean [Plasma]
  concentration at 2 hr: 1.08 nM
[1]; Scn8a^N1768D/+, plasma, 6 mg/kg, 6 mg/kg PO every 12 hr, day 7, 2 hr after 13th dose, read-out: Mean [Plasma]
  concentration at 2 hr: 13.2 nM
[1]; Scn8a^N1768D/+, plasma, 200 mg/kg, 200 mg/kg PO single dose, after assay 2 hr post dose, read-out: Mean [Plasma]
  concentration at 2 hr: 12600 nM
[1]; Scn8a^N1768D/+, plasma, 300 mg/kg, 300 mg/kg PO single dose, after assay 2 hr post dose, read-out: Mean [Plasma]
  concentration at 2 hr: 31500 nM
[1]; every 12 hr for 13 doses, mice and rats
  accumulation in the plasma or tissue on repeated dosing: did not appreciably accumulate
[2]; [6]
  Mean [Brain]: 0.01911 µM
  Mean [Plasma]: 0.01423 µM
[2]; 3 mg/kg PO single dose, 2 h, 3 mg/kg
  Mean [Plasma]: 0.01728 µM and 0.009122 µM
[2]; [7]
  Mean [Brain]: 0.02064 µM
  Mean [Plasma]: 0.03091 µM
[2]; 5 mg/kg PO single dose, 2 h, 5 mg/kg
  Mean [Plasma]: 0.0212 µM
[2]; [8]
  Mean [Brain]: 0.05777 µM and 0.08031 µM
  Mean [Plasma]: 0.1016 µM and 0.1012 µM
[2]; brain, 3 mg/kg, 3 mg/kg PO every 12 hr, day 7, 2 h after 13th dose, read-out: Mean [Brain]
  concentration at 2 h: 12.8 nM
[2]; brain, 5 mg/kg, 5 mg/kg PO every 12 hr, day 7, 2 h after 13th dose, read-out: Mean [Brain]
  concentration at 2 h: 37.7 nM
[2]; brain, 10 mg/kg, 10 mg/kg PO every 12 hr, day 7, 2 h after 13th dose, read-out: Mean [Brain]
  concentration at 2 h: 37.7 nM
[2]; brain, 10 mg/kg, 10 mg/kg PO single dose, 2 h, read-out: Mean [Brain]
  concentration at 2 h: 51.9 nM
[2]; brain, 100 mg/kg, 100 mg/kg PO single dose, 2 h, read-out: Mean [Brain]
  concentration at 2 h: 646 nM
[2]; brain, 200 mg/kg, 200 mg/kg PO single dose, 2 h, read-out: Mean [Brain]
  concentration at 2 h: 3880 nM
[2]; plasma, 3 mg/kg, 3 mg/kg PO every 12 hr, day 7, 2 h after 13th dose, read-out: Mean [Plasma]
  concentration at 2 h: 17.7 nM
[2]; plasma, 3 mg/kg, 3 mg/kg PO single dose, 2 h, read-out: Mean [Plasma]
  concentration at 2 h: 11.2 nM
[2]; plasma, 5 mg/kg, 5 mg/kg PO every 12 hr, day 7, 2 h after 13th dose, read-out: Mean [Plasma]
  concentration at 2 h: 43 nM
[2]; plasma, 5 mg/kg, 5 mg/kg PO single dose, 2 h, read-out: Mean [Plasma]
  concentration at 2 h: 36.8 nM
[2]; plasma, 10 mg/kg, 10 mg/kg PO every 12 hr, day 7, 2 h after 13th dose, read-out: Mean [Plasma]
  concentration at 2 h: 151 nM
[2]; plasma, 10 mg/kg, 10 mg/kg PO single dose, 2 h, read-out: Mean [Plasma]
  concentration at 2 h: 94.2 nM
[2]; plasma, 100 mg/kg, 100 mg/kg PO single dose, 2 h, read-out: Mean [Plasma]
  concentration at 2 h: 3330 nM
[2]; plasma, 200 mg/kg, 200 mg/kg PO single dose, 2 h, read-out: Mean [Plasma]
  concentration at 2 h: 34700 nM
[3]; brain, 1 mg/kg, 1 mg/kg PO every 12 hr, day 7, 2 hr after 13th dose, read-out: Mean [Brain]
  concentration at 2 h: 12.5 nM
[3]; brain, 1 mg/kg, 1 mg/kg PO single dose, 2 hr, read-out: Mean [Brain]
  concentration at 2 h: 16.6 nM
[3]; brain, 3 mg/kg, 3 mg/kg PO every 12 hr, day 7, 2 hr after 13th dose, read-out: Mean [Brain]
  concentration at 2 h: 39.6 nM
[3]; brain, 10 mg/kg, 10 mg/kg PO single dose, 2 hr, read-out: Mean [Brain]
  concentration at 2 h: 161 nM
[3]; brain, 30 mg/kg, 30 mg/kg PO single dose, 2 hr, read-out: Mean [Brain]
  concentration at 2 h: 213 nM
[3]; plasma, 1 mg/kg, 1 mg/kg PO every 12 hr, day 7, 2 hr after 13th dose, read-out: Mean [Plasma]
  concentration at 2 h: 33.9 nM
[3]; plasma, 3 mg/kg, 3 mg/kg PO every 12 hr, day 7, 2 hr after 13th dose, read-out: Mean [Plasma]
  concentration at 2 h: 123 nM
[3]; plasma, 10 mg/kg, 10 mg/kg PO single dose, 2 hr, read-out: Mean [Plasma]
  concentration at 2 h: 1150 nM
[3]; plasma, 30 mg/kg, 30 mg/kg PO single dose, 2 hr, read-out: Mean [Plasma]
  concentration at 2 h: 2330 nM
[3]; 1 mg/kg PO single dose, 2 hr, 1 mg/kg
  Mean [Brain]: 0.02047 µM and 0.01429 µM and 0.01541 µM
